Consider 31 compounds from patent publication US10696693B2, “Fused imidazole derivatives as TGF-beta inhibitors” (Rigel Pharmaceuticals, Inc., priority 2014, dated 2020).

Assay [1] has as its system GDF8. As to the kind of experiment: AlphaScreen SureFire p-SMAD3 (Ser423/425) assay, GDF8-stimulated cells. Format: cell-based. The following applies: Mus musculus. The method in brief: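 Lysate (5 μL) went into 384-well shallow plates with 5 μL of Reaction Buffer, Activation Buffer and AlphaScreen Acceptor bead mix. Plates were sealed, kept dark and shaken for 2 hours at room temperature. Donor beads in dilution buffer (2 μL) were added for another 1½ hours, and p-SMAD3 signal was read on a Synergy-4 or Enspire reader.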
A general note: Bead proximity is the source of the signal in Alpha formats.

The subject of assay [2] is TGF-β. In words: AlphaScreen SureFire p-SMAD3 (Ser423/425) assay, TGF-β-stimulated cells. As to conditions: Mus musculus. Type of assay: cell-based. The method, boiled down:
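The p-SMAD-3 (Ser423/425) SureFire assay measured phosphorylation of endogenous SMAD-3 in cell lysates. Cells were plated overnight in collagen-coated plates, exposed to three-fold serially diluted compounds for about 10 minutes, then stimulated with TGFβ. Lysates (5 μL) received acceptor bead mix for 2 hours, then donor beads for 1½ hours before AlphaScreen reading.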

[3] abbreviates: MPC-11, p-SMAD3 (Ser423/425) AlphaScreen in cell lysate, MPC11, GDF8 stimulation, read-out: GDF8: inhibition of GDF8 signaling, GDF pSMAD (MPC11).
Where [4] appears, read: p-SMAD3 (Ser423/425) AlphaScreen in cell lysate, MPC-11, TGF-β stimulation, read-out: TGF-β: inhibition of TGF-β signaling, TGF-β pSMAD (MPC-11).
[5] abbreviates: MPC-11, read-out: GDF8: inhibition of GDF8 signaling, GDF pSMAD (MPC11), p-SMAD3 (Ser423/425) AlphaScreen in cell lysate, GDF8 stimulation.
The mark [6] stands for this setting: MPC-11, read-out: TGF-β: inhibition of TGF-β signaling, TGF-β pSMAD (MPC-11), p-SMAD3 (Ser423/425) AlphaScreen in cell lysate, TGF-β stimulation.

Structures are written as SMILES. Read-outs that look alike come from different tables or passages of the source. Some results are limits rather than exact numbers.

Take `Fc1cc(F)c(F)c(-c2nc3n(c2-c2ccc4nccnc4c2)CCC3)c1` [Compound 238, 6-(2-(2,3,5-trifluorophenyl)-6,7-dihydro-5H-pyrrolo[1,2-a]imidazol-3-yl)quinoxaline]: the IC50 in assay [1] (setting [3]) and in assay [2] (setting [4]) was 0.1 to 1 µM in each case.
For `Fc1cc(-c2nc3n(c2-c2ccc4ncccc4c2)CCC3)c(F)cc1Cl` [Compound 242, 6-(2-(4-chloro-2,5-difluorophenyl)-6,7-dihydro-5H-pyrrolo[1,2-a]imidazol-3-yl)quinoline], the IC50 in assay [1] (setting [3]) and in assay [2] (setting [4]) was over 1 µM each time.
In the case of `Cc1cc(F)c(Cl)cc1-c1nc2n(c1-c1ccc3ncnn3c1)CCC2` [Compound 56, 6-(2-(5-chloro-4-fluoro-2-methylphenyl)-6,7-dihydro-5H-pyrrolo[1,2-a]imidazol-3-yl)-[1,2,4]triazolo[1,5-a]pyridine], the IC50 in assay [1] (setting [3]) and in assay [2] (setting [4]) was 0.1 to 1 µM throughout.
As to `Cc1cc(-c2nc3n(c2-c2ccc4nccnc4c2)CCC3)cc(Cl)c1F` [Compound 274, 6-(2-(3-chloro-4-fluoro-5-methylpheny)-6,7-dihydro-5H-pyrrolo[1,2-a]imidazol-3-yl)quinoxaline], the IC50 in assay [1] (setting [3]) and in assay [2] (setting [4]) was over 1 µM in each case.
Turning to `c1ccc(-c2nc3n(c2-c2ccc4ncsc4c2)CCC3)nc1` [Compound 367, 6-(2-(pyridin-2-yl)-6,7-dihydro-5H-pyrrolo[1,2-a]imidazol-3-yl)benzo[d]thiazole], the IC50 in assay [1] (setting [3]) and in assay [2] (setting [4]) was under 0.05 µM each time.
On to `Cc1cccc(-c2nc3occn3c2-c2ccc3cn[nH]c3c2)c1` [Compound 140, 6-(m-tolyl)-5-(1H-indazol-6-yl)imidazo[2,1-b]oxazole], for which the IC50 in assay [1] (setting [3]) and in assay [2] (setting [4]) was under 0.05 µM in each case.
In the case of `Cc1cc(-c2nc3n(c2-c2ccc4nccn4c2)CCC3)cc(C)c1Cl` [Compound 25, 6-(2-(4-chloro-3,5-dimethylphenyl)-6,7-dihydro-5H-pyrrolo[1,2-a]imidazol-3-yl)imidazo[1,2-a]pyridine], the IC50 in assay [1] (setting [3]) and in assay [2] (setting [4]) was over 1 µM each time.
Take `Fc1ccc(-c2nc3n(c2-c2ccc4[nH]ncc4c2)CCC3)cc1` [Compound 175, 5-(2-(4-fluorophenyl)-6,7-dihydro-5H-pyrrolo[1,2-a]imidazol-3-yl)-1H-indazole]: the IC50 in assay [1] (setting [5]) and in assay [2] (setting [6]) was 0.1 to 1 µM each time.
As to `COCCOc1cnc2ccc(-c3c(-c4cc(Cl)ccc4F)nc4n3CCC4)cc2n1` [Compound 354, 7-(2-(5-chloro-2-fluorophenyl)-6,7-dihydro-5H-pyrrolo[1,2-a]imidazol-3-yl)-2-(2-methoxyethoxy)quinoxaline], the IC50 in assay [1] (setting [5]) was 0.05 to 0.1 µM; in assay [2] (setting [6]) it was under 0.05 µM.
As to `Cc1cccc(-c2nc3n(c2-c2ccc4nccnc4c2)CCC3)c1` [Compound 180, 6-(2-(m-tolyl)-6,7-dihydro-5H-pyrrolo[1,2-a]imidazol-3-yl)quinoxaline], the values for the IC50 in assay [1] (setting [3]) and in assay [2] (setting [4]) were under 0.05 µM and 0.1 to 1 µM, respectively.
On to `Fc1ccc(-c2nc3occn3c2-c2ccc3ncccc3c2)c(F)c1F` [Compound 162, 5-(quinolin-6-yl)-6-(2,3,4-trifluorophenyl)imidazo[2,1-b]oxazole], for which the figures for the IC50 in assay [1] (setting [3]) and in assay [2] (setting [4]) were 0.05 to 0.1 µM and 0.1 to 1 µM, respectively.
In the same order, the values of `Cc1ccc(-c2nc3n(c2-c2ccc4[nH]ncc4c2)CCC3)c(F)c1F` [Compound 248, 5-(2-(2,3-difluoro-4-methylphenyl)-6,7-dihydro-5H-pyrrolo[1,2-a]imidazol-3-yl)-1H-indazole] are over 1 µM and over 1 µM.
In the same order, the values of `Fc1cc(F)c(-c2nc3n(c2-c2ccc4nnc(C(F)(F)F)n4c2)CCC3)cc1F` [Compound 34, 3-(trifluoromethyl)-6-(2-(2,4,5-trifluorophenyl)-6,7-dihydro-5H-pyrrolo[1,2-c]imidazol-3-yl)-[1,2,4]triazolo[4,3-c]pyridine] are over 1 µM and over 1 µM.
For `Cc1cc(-c2nc3n(c2-c2ccc4nccn4c2)CCC3)cc(C)c1F` [Compound 43, 6-(2-(4-fluoro-3,5-dimethylphenyl)-6,7-dihydro-5H-pyrrolo[1,2-a]imidazol-3-yl)imidazo[1,2-c]pyridine], the IC50 in assay [1] (setting [3]) and in assay [2] (setting [4]) was over 1 µM in each case.
Turning to `Fc1ccc(-c2nc3n(c2-c2ccc4ncccc4c2)CC2(CCCC2)C3)cc1` [Compound 327, 2′-(4-fluorophenyl)-3′-(quinolin-6-yl)-5′H,7′H-spiro[cyclopentane-1,6′-pyrrolo[1,2-a]imidazole]], the IC50 in assay [1] (setting [5]) and in assay [2] (setting [6]) was over 1 µM throughout.
With `Fc1cc(F)c(-c2nc3occn3c2-c2ccc3ncsc3c2)cc1F` [Compound 151, 5-(benzo[d]thiazol-6-yl)-6-(2,4,5-trifluorophenyl)imidazo[2,1-b]oxazole], the IC50 in assay [1] (setting [3]) and in assay [2] (setting [4]) was under 0.05 µM each time.
Turning to `Fc1ccc(-c2nc3n(c2-c2ccc4[nH]ncc4c2)CC2(CCCC2)C3)cc1` [Compound 324, 2′-(4-fluorophenyl)-3′-(1H-indazol-5-yl)-5′H,7′H-spiro[cyclopentane-1,6′-pyrrolo[1,2-a]imidazole]], the IC50 in assay [1] (setting [5]) and in assay [2] (setting [6]) was over 1 µM each time.
On to `Fc1cc(-c2nc3n(c2-c2ccc4nccnc4c2)CCC3)cc(F)c1F` [Compound 227, 6-(2-(3,4,5-trifluorophenyl)-6,7-dihydro-5H-pyrrolo[1,2-a]imidazol-3-yl)quinoxaline], for which the results for the IC50 in assay [1] (setting [3]) and in assay [2] (setting [4]) were 0.1 to 1 µM and over 1 µM, respectively.
As for `COc1c(C)cc(-c2nc3n(c2-c2ccc4ncccc4c2)CCC3)cc1C` [Compound 259, 6-(2-(4-methoxy-3,5-dimethylphenyl)-6,7-dihydro-5H-pyrrolo[1,2-a]imidazol-3-yl)quinoline], the IC50 in assay [1] (setting [3]) and in assay [2] (setting [4]) was over 1 µM each time.
With `COCCOc1cnc2ccc(-c3c(-c4cc(F)cc(F)c4F)nc4n3CCCN4)cc2n1` [Compound 167, 2-(2-methoxyethoxy)-7-(2-(2,3,5-trifluorophenyl)-5,6,7,8-tetrahydroimidazo[1,2-a]pyrimidin-3-yl)quinoxaline], the IC50 in assay [1] (setting [3]) and in assay [2] (setting [4]) was over 1 µM each time.
As for `Fc1ccc(-c2nc3n(c2-c2ccc4nccn4c2)CCC3)cc1F` [Compound 10], the IC50 in assay [1] (setting [3]) was 0.1 to 1 µM; in assay [2] (setting [4]), over 1 µM.
As for `Fc1ccc(Cl)cc1-c1nc2n(c1-c1ccc3nccnc3c1)CCC2` [Compound 337, 6-(2-(5-chloro-2-fluoropheny)-6,7-dihydro-5H-pyrrolo[1,2-a]imidazol-3-yl)quinoxaline], the IC50 in assay [1] (setting [3]) and in assay [2] (setting [4]) was under 0.05 µM in each case.
As to `CC(=O)N1CCn2c1nc(-c1cc(F)c(F)cc1F)c2-c1ccc2ncnn2c1` [Compound 104, 1-(5-([1,2,4]triazolo[1,5-a]pyridin-6-yl)-6-(2,4,5-trifluorophenyl)-2,3-dihydro-1H-imidazo[1,2-a]imidazol-1-yl)ethan-1-one], the IC50 in assay [1] (setting [3]) and in assay [2] (setting [4]) was over 1 µM throughout.
Turning to `Cc1ccccc1-c1nc2n(c1-c1ccc3ncsc3c1)CCC2` [Compound 305, 6-(2-(o-tolyl)-6,7-dihydro-5H-pyrrolo[1,2-a]imidazol-3-yl)benzo[d]thiazole], the results for the IC50 in assay [1] (setting [3]) and in assay [2] (setting [4]) were 0.1 to 1 µM and over 1 µM, respectively.
With `Fc1ccccc1-c1nc2n(c1-c1ccc3nccn3c1)CCC2` [Compound 8], the IC50 in assay [1] (setting [3]) and in assay [2] (setting [4]) was 0.1 to 1 µM each time.
Consider `Fc1ccc(-c2nc3n(c2-c2ccc4[nH]ncc4c2)CCC3)cc1Cl` [Compound 264, 5-(2-(3-chloro-4-fluoropheny)-6,7-dihydro-5H-pyrrolo[1,2-a]imidazol-3-yl)-1H-indazole], for which the IC50 in assay [1] (setting [3]) is under 0.05 µM; in assay [2] (setting [4]), 0.1 to 1 µM.
Taken in the same sequence, the figures for `Cc1cccc(-c2nc3occn3c2I)c1` [Compound 138, 5-iodo-6-(m-tolyl)imidazo[2,1-b]oxazole] were over 1 µM and over 1 µM.
Turning to `Nc1ncnc2ccc(-c3c(-c4cc(F)cc(F)c4F)nc4n3CCN4)cc12` [Compound 113, 6-(6-(2,3,5-trifluorophenyl)-2,3-dihydro-1H-imidazo[1,2-a]imidazol-5-yl)quinazolin-4-amine], the IC50 in assay [1] (setting [3]) and in assay [2] (setting [4]) was 0.05 to 0.1 µM throughout.
For the compound `Cc1cc(-c2nc3n(c2-c2ccc4ncsc4c2)CCC3)c(F)cc1F` [Compound 269, 6-(2-(2,4-difluoro-5-methylphenyl)-6,7-dihydro-5H-pyrrolo[1,2-a]imidaozl-3-yl)benzo[d]thiazole], the IC50 in assay [1] (setting [3]) is under 0.05 µM; in assay [2] (setting [4]), 0.05 to 0.1 µM.
In the case of `Cc1cc(F)c(F)cc1-c1nc2n(c1-c1ccc3ncc(C(N)=O)n3c1)CCC2` [Compound 52, 6-(2-(4,5-difluoro-2-methylphenyl)-6,7-dihydro-5H-pyrrolo[1,2-a]imidazol-3-yl)imidazo[1,2-a]pyridine-3-carboxamide], the IC50 in assay [1] (setting [3]) was under 0.05 µM; in assay [2] (setting [4]), 0.05 to 0.1 µM.
Turning to `Fc1cc(F)c(F)c(-c2nc3n(c2-c2ccc4ncsc4c2)CCC3)c1` [Compound 235, 6-(2-(2,3,5-trifluorophenyl)-6,7-dihydro-5H-pyrrolo[1,2-a]imidazol-3-yl)benzo[d]thiazole], the IC50 in assay [1] (setting [5]) and in assay [2] (setting [6]) was 0.1 to 1 µM each time.
